# Source: patent US20260327263A1, “Anti-Bacterial Peptides” (priority 2023, published 2026)
# “And” between values parts separate entries of the source, which are not always exact repeats. Equal values may be shown once. Where no end group is shown, it is not given here.
# How the values were obtained:
# [1] = tested on: Pseudomonas aeruginosa (PA); assay: Antimicrobial resistance evolution assay, PA; type: cell-based; details: for development of antimicrobial resistance, PA: serial passaging, 28 days, resistance = >4-fold MIC change
# Source text: The development of antimicrobial resistance is defined by greater than a 4-fold change to their initial minimum inhibitory concentration (MIC) at day 1. Exemplary bacteria strains Pseudomonas aeruginosa (PA) and Staphylococcus aureus (SA) are subjected to continuous daily serial passaging over several days, with treatment of exemplary variant peptides E1AM2 (SEQ ID NO: 2) and Q19L (SEQ ID NO: […]) at subinhibitory concentrations. […] The treatments were discontinued when the MIC increased by more than four-fold from the initial MIC or when MIC reached >100 μM.
# Briefly, sequential passaging of PA, and SA cells was done with sub-inhibitory concentrations of antibiotics or E1AM2 up to 4 weeks. The cells grown in those concentrations of antibiotics or peptides were diluted to A600 nm (OD600) of ~0.2 and serially passaged daily with the same concentrations at 37° C. with agitation at 24 h intervals.
# [2] = Comparison of AMPs in clinical trial with V8LQ19L (Table 13); details: ✓ / X
# [3] = tested on: human keratinocytes (HaCaT); assay: Cell proliferation assay, HaCaT keratinocytes; type: cell-based
# Experimental: Wound closure was compared with the untreated samples (circle, red highlight). For improved clarity, error bars have been omitted from this representation. […] Each value is the mean±SD (n=3). Statistical significance was assessed using ANOVA for multiple comparisons (Dunnett's multiple comparisons test). **** p<0.0001, *** p<0.001, ** p<0.01, *p<0.05, ns denotes nonsignificance, p >0.05.
# CyQUANT™ Direct Cell Proliferation Assay (ThermoFisher Scientific, Catalogue) was performed as per manufacturer's instructions to determine the safety of the peptides to human keratinocytes. […] The fluorescence intensity and number of stained cells were determined using the LionHeart FX Automated Microscope (BioTek, VT, USA).
# [4] = tested on: pathogens isolated from the infected tissues of DFU patients; assay: Antibacterial test on pathogens from infected DFU tissues; type: cell-based
# Experimental: The varied colours and morphologies highlight the presence of multiple species and a diverse bacterial population within the infected tissues. Method: Freshly debrided infected tissues from DFU patients are weighed and immersed in 2 ml of MHB (Mueller-Hinton Broth) media for 48 hours to soften the tissues, facilitating the release of bacteria. These samples are subsequently sonicated for 1 minute at a 15A amplitude using a water bath sonicator to release the bacteria. The resultant slurry is plated on MHB media supplemented with 1.5% agar to isolate all bacteria. These bacterial isolates are then evaluated for their antibacterial efficacy following the CLSI (Clinical and Laboratory Standards Institute) guidelines.
# In some examples, the effective bacteria killing concentration range for the variant peptides can be, but is not limited to at least about 1.5 μM, at least about 2 μM, at least about 2.5 μM, at least about 5 μM, at least about 7.5 μM, at least about 10 μM, at least about 12.5 μM, at least about 15 μM, at least about 15 μM, at least about 17.5 μM, at least about 20 μM, at least about 25 μM, at least about 35 μM, or at least about 45 μM. In one example, the effective biofilm disruption concentration ranges from about 1.5 μM-25 μM or 1.5 μM-50 μM. In another example, the concentration is between about 40 μM to 50 μM.
# [5] = tested on: Staphylococcus aureus (SA); assay: Broth microdilution anti-bacterial assay (CLSI), Staphylococcus aureus; type: cell-based; details: SA; for MIC: overnight, 37° C., ≥99% inhibition; for MBC: ≥99% killing
# [6] = tested on: bacteria; assay: Comparison of wild-type peptide E1A to V8LQ19L (Table 14)
# Source text: Active peptide sequences based on ENO3 exerting significant bactericidal antibiofilm properties, and relevant to chronic wound healing are previously disclosed. The previously disclosed antimicrobial peptides (AMPs) are longer (>22-residues) in length, which would be more costly in production.
# [7] = tested on: bacteria; assay: Comparison of lead peptide to standard of care (Table 16)
# [8] = tested on: mixed bacterial infection (PA, SA and ST); assay: Broth microdilution, mixed bacterial infection; type: cell-based; details: mixed infection
# Experimental: Chronic wounds mostly present mixed infections where numerous pathogens colonize together.
# (§1) Examination of the potency of modified short peptides against PA and SA strains was performed by using the broth microdilution protocol from the Clinical and Laboratory Standards Institute (CLSI) guidelines (CLSI 2012) as described. Briefly, five freshly plated bacteria colonies were grown in cation adjusted MH2 broth (BD Biosciences) in a shaker incubator at 37° C., 220 RPM. Cells were grown to an optical density (OD600) of ~0.2 measured using a Microplate Spectrophotometer (Molecular Devices Spectra Max Plus). 100 μL of microbial culture containing ~5×10^5 CFU/mL of bacteria in the respective broths were introduced into each well containing 100 μL of peptides and incubated overnight at 37° C. Next, to check the bactericidal effects, 100 μL from each well was transferred and spread on sterile MH2 agar plates. The plates were incubated overnight at 37° C. and the number of colonies forming units (CFU) were calculated the following day. Readings of bacteria grown in media without any treatments were normalized to 100% as media control. For the mixed infection study, three freshly plated bacteria colonies each from PA, SA and ST plates were grown together in cation adjusted MH2 broth and proceeded as described above.
# [9] = tested on: Pseudomonas aeruginosa PA BAA-2110; assay: Broth microdilution, PA BAA-2110 (lung infection in cystic fibrosis); type: cell-based, Pseudomonas aeruginosa (BAA-2110); details: PA BAA-2110
# Experimental: Bacteria strains involved in lung infection in cystic fibrosis patients (PA-BAA 2110) and ear-eye infections (PA-CRM 9027) are treated with exemplary variant peptides, such as E1AM2 and Q19L.
# as §1
substance,measurement,setting,value
KKLLKKWLKLSKKALKLALSL-NH2 [V8LQ19L],AMR prevention / resistance induction,"[1]; Table 15: in PA and SA, bacteria not named",Prevent AMR
same,"development of antimicrobial resistance, PA",[1],effective in preventing the acquisition of AMR
same,Broad spectrum activity,[2],✓
same,Healing support,[2],✓
same,Cytotoxicity at high concentration (100 μM),"[3]; 100 μM, cell line not named in Table 15",Non-cytotoxic
same,cytotoxicity to HaCaT,"[3]; 24 h, up to highest tested concentrations (peptide), 3% (H2O2)",noncytotoxic
same,elimination of pathogens in DFU tissue (in words),[4]; FIG. 11,effective elimination of pathogens
same,elimination of bacteria from DFU tissue,[4]; at 50 μM,over 99%
same,MIC,[5],1.56 µM
same,MIC,[5]; listed as VBLQ19L,1.56 µM
same,MBC,[5],1.56 µM
same,MBC,[5]; listed as VBLQ19L,1.56 µM
same,Cationicity,[6],Cationic (bacterial membrane
same,Mechanism of killing bacteria,[6],Membrane disintegration
same,MIC/MBC,[6]; bacteria not named in Table 14,1.56 µM
same,AMR Prevention,[7],Yes
same,Negligible Cytotoxicity,[7],Yes
same,No Allergic/Adverse Reactions,[7],Yes
same,Targeted bacteria-specific eradication,[7],Yes
same,Wound Healing Support,[7],Yes
same,Antibacterial Efficacy,[7]; Broad- (spectrum continues on next line),Broad-
"E1AM2: untagged (E1AM2), KKLLKKWVKLSKKALKLAQSL","development of antimicrobial resistance, PA",[1],prevented resistance acquisition
same,MBC,[8],6.25 µM
same,MBC,[9],6.25 µM
same,MIC,[9],3.125 µM
same,MIC,[5],6.25 µM and 6.28 µM
same,MBC,[5],12.5 µM
